16 compounds from patent US10081624B2, “Heterocyclic compound” (Takeda Pharmaceutical Company Limited, priority 2014, dated 2018) can be followed below.

SMILES strings stand for the structures.

One assay concerns the target T1, HDAC1 enzyme (Homo sapiens, UniProt Q13547).
T1 construct: prepared by transducing full length HDAC1 and HDAC6 genes into Sf-9 insect cells; GST; purchased SignalChem; host or cells: Sf-9 insect cells
Put plainly: HDAC1 enzyme inhibitory assay (HDAC-Glo I/II Assay kit). Format: biochemical. To be noted: 1 μM test compound; for inhibition at 1 µM: read-out: HDAC1 inhibitory rate (%) (1 μM). A digest of the protocol: (§1)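 Sf-9-expressed GST-purified full-length HDAC1/HDAC6; cpd + enzyme 60 min RT, 24 mM Tris-HCl pH 7.5, 135 mM NaCl, 0.6 mM glutathione, 0.01% Tween-20; substrate-developer 20 min RT; luminescence; no-enzyme wells = 100% inhibition.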

The next assay has as its target T2, HDAC6 enzyme (Homo sapiens, UniProt Q9UBN7).
T2 construct: prepared by transducing full length HDAC1 and HDAC6 genes into Sf-9 insect cells; GST; purchased SignalChem; host or cells: Sf-9 insect cells
T2 sequence (Q9UBN7 1-1215): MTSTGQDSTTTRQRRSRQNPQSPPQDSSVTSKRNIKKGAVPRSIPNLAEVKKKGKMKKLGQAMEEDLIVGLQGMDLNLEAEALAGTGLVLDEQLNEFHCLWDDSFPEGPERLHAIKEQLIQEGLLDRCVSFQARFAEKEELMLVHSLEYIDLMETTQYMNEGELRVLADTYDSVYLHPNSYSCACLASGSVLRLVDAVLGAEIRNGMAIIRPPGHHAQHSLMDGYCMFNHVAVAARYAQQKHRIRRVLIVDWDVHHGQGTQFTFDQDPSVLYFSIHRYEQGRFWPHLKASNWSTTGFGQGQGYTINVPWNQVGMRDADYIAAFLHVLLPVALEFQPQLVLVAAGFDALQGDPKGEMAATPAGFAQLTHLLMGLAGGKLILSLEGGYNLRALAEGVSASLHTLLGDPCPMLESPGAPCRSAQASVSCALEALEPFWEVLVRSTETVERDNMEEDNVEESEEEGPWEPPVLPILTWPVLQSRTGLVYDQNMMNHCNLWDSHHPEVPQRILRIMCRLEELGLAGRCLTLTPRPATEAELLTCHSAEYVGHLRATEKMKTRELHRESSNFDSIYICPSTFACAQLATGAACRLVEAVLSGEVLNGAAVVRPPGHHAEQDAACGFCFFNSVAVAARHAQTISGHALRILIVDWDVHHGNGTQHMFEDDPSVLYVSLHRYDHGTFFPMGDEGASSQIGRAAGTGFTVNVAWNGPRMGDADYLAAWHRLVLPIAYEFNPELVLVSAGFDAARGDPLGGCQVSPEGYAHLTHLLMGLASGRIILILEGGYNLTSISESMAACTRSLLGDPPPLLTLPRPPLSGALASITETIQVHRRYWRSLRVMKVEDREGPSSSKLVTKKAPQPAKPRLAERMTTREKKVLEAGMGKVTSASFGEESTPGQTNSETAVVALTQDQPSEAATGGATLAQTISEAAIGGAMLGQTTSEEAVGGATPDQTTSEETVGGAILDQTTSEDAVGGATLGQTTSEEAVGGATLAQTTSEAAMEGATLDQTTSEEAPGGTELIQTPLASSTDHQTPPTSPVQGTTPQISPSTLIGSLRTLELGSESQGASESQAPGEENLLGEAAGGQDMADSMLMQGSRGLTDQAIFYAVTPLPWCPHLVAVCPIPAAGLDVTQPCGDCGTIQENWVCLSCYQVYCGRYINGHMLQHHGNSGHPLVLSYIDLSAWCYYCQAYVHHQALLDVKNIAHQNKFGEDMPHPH
Put plainly: HDAC6 enzyme inhibitory assay (HDAC-Glo I/II Assay kit). Format: biochemical. To be noted: 1 μM test compound; for inhibition at 1 µM: read-out: HDAC6 inhibitory rate (%) (1 μM). The essentials:
as §1

T1 sequence (Q13547 whole entry): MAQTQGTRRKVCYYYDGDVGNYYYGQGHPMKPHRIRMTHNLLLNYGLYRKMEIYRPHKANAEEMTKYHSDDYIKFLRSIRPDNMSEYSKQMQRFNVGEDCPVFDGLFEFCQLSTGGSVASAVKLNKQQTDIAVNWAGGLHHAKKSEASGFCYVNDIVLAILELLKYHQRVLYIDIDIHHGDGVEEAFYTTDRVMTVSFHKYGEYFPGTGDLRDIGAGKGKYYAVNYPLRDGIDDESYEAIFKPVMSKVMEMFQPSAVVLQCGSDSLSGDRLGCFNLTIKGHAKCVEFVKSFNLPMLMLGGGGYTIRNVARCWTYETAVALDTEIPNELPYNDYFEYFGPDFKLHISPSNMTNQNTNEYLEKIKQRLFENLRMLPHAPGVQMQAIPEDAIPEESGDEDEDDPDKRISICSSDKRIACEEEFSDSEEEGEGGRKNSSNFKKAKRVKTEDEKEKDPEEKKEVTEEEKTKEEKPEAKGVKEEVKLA

For `O=C(NC[C@H]1COCCN1C(=O)c1ccnn1CCO)c1ccc(-c2noc(C(F)(F)F)n2)cc1` [Example 296, N-(((3S)-4-((1-(2-hydroxyethyl)-1H-pyrazol-5-yl)carbonyl)morpholin-3-yl)methyl)-4-(5-(trifluoromethyl)-1,2,4-oxadiazol-3-yl)benzamide], the inhibition at 1 µM at HDAC1 enzyme turned out to be 32%; on HDAC6 enzyme it was 100%.
The corresponding values for `Cn1nccc1CC(=O)N1CCOC[C@@H]1CNC(=O)c1ccc(-c2noc(C(F)(F)F)n2)cc1` [Example 297, N-(((3S)-4-((1-methyl-1H-pyrazol-5-yl)acetyl)morpholin-3-yl)methyl)-4-(5-(trifluoromethyl)-1,2,4-oxadiazol-3-yl)benzamide] are 5% and 93%.
For the compound `O=C(NC[C@H]1COCCN1C(=O)N1CCC(CO)C1)c1ccc(-c2noc(C(F)(F)F)n2)cc1` (stereo partly drawn) [Example 298, N-(((3S)-4-((3-(hydroxymethyl)pyrrolidin-1-yl)carbonyl)morpholin-3-yl)methyl)-4-(5-(trifluoromethyl)-1,2,4-oxadiazol-3-yl)benzamide], the inhibition at 1 µM on HDAC1 enzyme worked out at 3%; on HDAC6 enzyme it was 88%.
On to `O=C(NC[C@H]1COCCN1C(=O)N1CCC(CO)C1)c1ccc(-c2noc(C(F)(F)F)n2)cc1` (stereo partly drawn) [Example 299, N-(((3S)-4-((3-(hydroxymethyl)pyrrolidin-1-yl)carbonyl)morpholin-3-yl)methyl)-4-(5-(trifluoromethyl)-1,2,4-oxadiazol-3-yl)benzamide], for which, on HDAC1 enzyme (1 µM), the “HDAC1 inhibitory rate (%) (1 μM)” value is on record as 4%. Further, the “HDAC6 inhibitory rate (%) (1 μM)” value at HDAC6 enzyme (1 µM) is 94%.
With `O=C(NC[C@H]1COCCN1C(=O)N1CCC(CCO)C1)c1ccc(-c2noc(C(F)(F)F)n2)cc1` (stereo partly drawn) [Example 300, N-(((3S)-4-((3-(2-hydroxyethyl)pyrrolidin-1-yl)carbonyl)morpholin-3-yl)methyl)-4-(5-(trifluoromethyl)-1,2,4-oxadiazol-3-yl)benzamide], the inhibition at 1 µM on HDAC1 enzyme was 4%; at HDAC6 enzyme it was 90%.
As for `O=C(NC[C@H]1COCCN1C(=O)N1CCC(CCO)C1)c1ccc(-c2noc(C(F)(F)F)n2)cc1` (stereo partly drawn) [Example 301, N-(((3S)-4-((3-(2-hydroxyethyl)pyrrolidin-1-yl)carbonyl)morpholin-3-yl)methyl)-4-(5-(trifluoromethyl)-1,2,4-oxadiazol-3-yl)benzamide], on HDAC1 enzyme (1 µM), the “HDAC1 inhibitory rate (%) (1 μM)” value was 3%. Besides, the “HDAC6 inhibitory rate (%) (1 μM)” value at HDAC6 enzyme (1 µM) was 92%.
`O=C(NC[C@H]1COCCN1C(=O)c1cccc(OCCO)c1)c1ccc(-c2noc(C(F)(F)F)n2)cc1` [Example 302, N-(((3S)-4-(3-(2-hydroxyethoxy)benzoyl)morpholin-3-yl)methyl)-4-(5-(trifluoromethyl)-1,2,4-oxadiazol-3-yl)benzamide]: the inhibition at 1 µM on HDAC1 enzyme came out at 10%; on HDAC6 enzyme it was 98%.
As for `O=C(NC[C@H]1COCCN1C(=O)N1CCCCC1CO)c1ccc(-c2noc(C(F)(F)F)n2)cc1` (stereo partly drawn) [Example 303, N-(((3S)-4-((2-(hydroxymethyl)piperidin-1-yl)carbonyl)morpholin-3-yl)methyl)-4-(5-(trifluoromethyl)-1,2,4-oxadiazol-3-yl)benzamide], the inhibition at 1 µM came out at 8% on HDAC1 enzyme and 99% on HDAC6 enzyme.
Consider `O=C(NC[C@H]1COCCN1C(=O)N1CCCCC1CO)c1ccc(-c2noc(C(F)(F)F)n2)cc1` (stereo partly drawn) [Example 304, N-(((3S)-4-((2-(hydroxymethyl)piperidin-1-yl)carbonyl)morpholin-3-yl)methyl)-4-(5-(trifluoromethyl)-1,2,4-oxadiazol-3-yl)benzamide], for which, on HDAC1 enzyme (1 µM), the “HDAC1 inhibitory rate (%) (1 μM)” value is 9%. The “HDAC6 inhibitory rate (%) (1 μM)” value at HDAC6 enzyme came out at 99%.
As for `O=C(NC[C@H]1COCCN1C(=O)N1CCCC1CCO)c1ccc(-c2noc(C(F)(F)F)n2)cc1` (stereo partly drawn) [Example 305, N-(((3S)-4-((2-(2-hydroxyethyl)pyrrolidin-1-yl)carbonyl)morpholin-3-yl)methyl)-4-(5-(trifluoromethyl)-1,2,4-oxadiazol-3-yl)benzamide], the results for the inhibition at 1 µM at HDAC1 enzyme and on HDAC6 enzyme were 5% and 99%, respectively.
Take `O=C(NC[C@H]1COCCN1C(=O)N1CCCC1CCO)c1ccc(-c2noc(C(F)(F)F)n2)cc1` (stereo partly drawn) [Example 306, N-(((3S)-4-((2-(2-hydroxyethyl)pyrrolidin-1-yl)carbonyl)morpholin-3-yl)methyl)-4-(5-(trifluoromethyl)-1,2,4-oxadiazol-3-yl)benzamide]: at HDAC1 enzyme, the “HDAC1 inhibitory rate (%) (1 μM)” value came out at 5%. In addition, the “HDAC6 inhibitory rate (%) (1 μM)” value at HDAC6 enzyme (1 µM) turned out to be 88%.
For `O=C(NC[C@H]1COCCN1C(=O)N1CCCC(F)(F)C1)c1ccc(-c2noc(C(F)(F)F)n2)cc1` [Example 307, N-(((3S)-4-((3,3-difluoropiperidin-1-yl)carbonyl)morpholin-3-yl)methyl)-4-(5-(trifluoromethyl)-1,2,4-oxadiazol-3-yl)benzamide], the inhibition at 1 µM at HDAC1 enzyme was found to be 9%; on HDAC6 enzyme, 98%.
The corresponding values for `Cc1oc2ccccc2c1C(=O)N1CCOC[C@@H]1CNC(=O)c1ccc(-c2noc(C(F)(F)F)n2)cc1` [Example 308, N-(((3S)-4-((2-methyl-1-benzofuran-3-yl)carbonyl)morpholin-3-yl)methyl)-4-(5-(trifluoromethyl)-1,2,4-oxadiazol-3-yl)benzamide] are 46% and 100%.
For `O=C(NC[C@H]1COCCN1C(=O)N1CC2C(C1)C2(F)F)c1ccc(-c2noc(C(F)(F)F)n2)cc1` (stereo partly drawn) [Example 309, N-(((3S)-4-((6,6-difluoro-3-azabicyclo[3.1.0]hex-3-yl)carbonyl)morpholin-3-yl)methyl)-4-(5-(trifluoromethyl)-1,2,4-oxadiazol-3-yl)benzamide], the inhibition at 1 µM on HDAC1 enzyme amounted to 4%; on HDAC6 enzyme it was 96%.
Take `O=C(NC[C@H]1COCCN1C(=O)N1CCOCC1CO)c1ccc(-c2noc(C(F)(F)F)n2)cc1` (stereo partly drawn) [Example 310, N-(((3S)-4-((3-(hydroxymethyl)morpholin-4-yl)carbonyl)morpholin-3-yl)methyl)-4-(5-(trifluoromethyl)-1,2,4-oxadiazol-3-yl)benzamide]: the “HDAC1 inhibitory rate (%) (1 μM)” value on HDAC1 enzyme (1 µM) is on record as 3%. Besides, the inhibition at 1 µM on HDAC6 enzyme was 98%.
Consider `O=C(NC[C@H]1COCCN1C(=O)N1CCOCC1CO)c1ccc(-c2noc(C(F)(F)F)n2)cc1` (stereo partly drawn) [Example 311, N-(((3S)-4-((3-(hydroxymethyl)morpholin-4-yl)carbonyl)morpholin-3-yl)methyl)-4-(5-(trifluoromethyl)-1,2,4-oxadiazol-3-yl)benzamide], for which, at HDAC1 enzyme (1 µM), the “HDAC1 inhibitory rate (%) (1 μM)” value stood at 7%. In addition, the “HDAC6 inhibitory rate (%) (1 μM)” value at HDAC6 enzyme (1 µM) is on record as 96%.
